Tests used:
Assay type in all cases: cell-based
[1] = system: COLO205 (colon); assay: Inhibition of cell proliferation, CellTiter-Glo, COLO205; settings: Homo sapiens, COLO 205, 72 h
In short: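 Exponentially growing COLO205 cells in medium with 10% FBS were plated below 2000 cells/well at 37 °C, 5% CO2. Untreated wells served as controls.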

[2] = system: NCI-H929 (multiple myeloma); assay: Inhibition of cell proliferation, CellTiter-Glo, NCI-H929; settings: Homo sapiens, 72 h
Method: C. Inhibition of Cell Proliferation
Cell proliferation was measured by either CellTiter-Glo (measures cellular ATP level as a surrogate for total cell number) or by InCell analyzer (counts number of nuclei as a measure of cell number). For CellTiter-Glo assay, exponentially growing cell lines of different tumor origins, cultured in appropriate media containing 10% fetal bovine serum at 37° C. in a 5% CO2 incubator, were plated at low density (less than 2000 cells/well) in 96-well plates. Twenty four hours post-plating, cells were treated with different concentrations of test compounds ranging from 30 uM to 1.5 nM. Several wells were left untreated as a control. Seventy two hours post-treatment, cell numbers were determined using 50-100 ul per well of CellTiter-Glo (Promega #G7573). Plates were incubated at 37° C. for 30 minutes and the chemiluminescent signal was read on the Victor V or Envison 2100 reader. […]

[3] = target: T1, human IGF-1R (NIH-3T3 cells over expressing human IGF-1R) (Homo sapiens, UniProt P08069); assay: IGF-1R cellular autophosphorylation (DELFIA); settings: IGF-1 stimulated
T1 construct: expressed in transfected cells; host or cells: NIH-3T3 (mouse fibroblasts)
T1 sequence (P08069 31-1367): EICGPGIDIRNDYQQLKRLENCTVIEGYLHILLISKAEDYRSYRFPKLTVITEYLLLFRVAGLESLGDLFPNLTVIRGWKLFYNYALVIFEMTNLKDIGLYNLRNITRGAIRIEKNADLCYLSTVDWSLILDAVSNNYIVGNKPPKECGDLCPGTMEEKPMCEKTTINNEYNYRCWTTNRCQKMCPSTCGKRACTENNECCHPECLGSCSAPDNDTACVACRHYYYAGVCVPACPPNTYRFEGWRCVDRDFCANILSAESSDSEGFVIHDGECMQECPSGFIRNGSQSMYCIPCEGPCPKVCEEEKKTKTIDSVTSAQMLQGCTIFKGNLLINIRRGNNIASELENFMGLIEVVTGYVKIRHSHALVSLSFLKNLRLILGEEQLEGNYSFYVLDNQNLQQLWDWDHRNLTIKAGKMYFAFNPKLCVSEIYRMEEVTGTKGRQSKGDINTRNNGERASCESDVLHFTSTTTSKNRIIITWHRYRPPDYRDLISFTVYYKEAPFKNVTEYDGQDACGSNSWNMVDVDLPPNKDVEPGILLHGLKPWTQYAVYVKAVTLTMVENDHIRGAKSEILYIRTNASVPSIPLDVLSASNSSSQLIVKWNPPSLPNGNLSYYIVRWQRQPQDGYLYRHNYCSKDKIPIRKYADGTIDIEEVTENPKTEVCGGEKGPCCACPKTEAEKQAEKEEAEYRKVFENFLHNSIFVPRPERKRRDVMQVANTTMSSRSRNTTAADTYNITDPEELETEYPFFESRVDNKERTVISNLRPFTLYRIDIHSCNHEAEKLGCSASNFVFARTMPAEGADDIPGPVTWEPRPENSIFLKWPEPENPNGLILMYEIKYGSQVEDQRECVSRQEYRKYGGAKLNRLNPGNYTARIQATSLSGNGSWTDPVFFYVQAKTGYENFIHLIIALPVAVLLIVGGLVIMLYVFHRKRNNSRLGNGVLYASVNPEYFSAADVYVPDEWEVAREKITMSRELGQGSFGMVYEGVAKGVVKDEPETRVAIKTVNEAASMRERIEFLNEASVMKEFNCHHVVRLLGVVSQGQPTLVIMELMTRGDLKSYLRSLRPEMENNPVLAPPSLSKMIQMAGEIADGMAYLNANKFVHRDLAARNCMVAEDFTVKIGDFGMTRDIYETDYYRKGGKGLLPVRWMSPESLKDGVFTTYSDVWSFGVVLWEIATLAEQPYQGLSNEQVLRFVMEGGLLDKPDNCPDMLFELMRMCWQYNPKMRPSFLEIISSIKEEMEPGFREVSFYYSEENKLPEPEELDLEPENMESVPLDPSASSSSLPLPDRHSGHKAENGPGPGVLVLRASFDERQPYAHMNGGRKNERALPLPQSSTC
In short: (§1)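 Receptor-overexpressing NIH-3T3, 10% FBS, 37 °C; cpd 30 uM–1.5 nM × 2 h; stim IGF-1 30 ng/mL (IGF-1R) or insulin 3 ug/mL (IR), 15 min; lysate DELFIA, Eu anti-pTyr; % of stimulated signal.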

[4] = target: T2, IR (NIH-3T3 cells over expressing human IGF-1R or IR) (Homo sapiens, UniProt P06213); assay: IR cellular autophosphorylation (DELFIA); settings: NIH-3T3 cells over expressing IR, insulin stimulated
T2 construct: expressed in transfected cells; host or cells: NIH-3T3 (mouse fibroblasts)
T2 sequence (P06213 28-1382): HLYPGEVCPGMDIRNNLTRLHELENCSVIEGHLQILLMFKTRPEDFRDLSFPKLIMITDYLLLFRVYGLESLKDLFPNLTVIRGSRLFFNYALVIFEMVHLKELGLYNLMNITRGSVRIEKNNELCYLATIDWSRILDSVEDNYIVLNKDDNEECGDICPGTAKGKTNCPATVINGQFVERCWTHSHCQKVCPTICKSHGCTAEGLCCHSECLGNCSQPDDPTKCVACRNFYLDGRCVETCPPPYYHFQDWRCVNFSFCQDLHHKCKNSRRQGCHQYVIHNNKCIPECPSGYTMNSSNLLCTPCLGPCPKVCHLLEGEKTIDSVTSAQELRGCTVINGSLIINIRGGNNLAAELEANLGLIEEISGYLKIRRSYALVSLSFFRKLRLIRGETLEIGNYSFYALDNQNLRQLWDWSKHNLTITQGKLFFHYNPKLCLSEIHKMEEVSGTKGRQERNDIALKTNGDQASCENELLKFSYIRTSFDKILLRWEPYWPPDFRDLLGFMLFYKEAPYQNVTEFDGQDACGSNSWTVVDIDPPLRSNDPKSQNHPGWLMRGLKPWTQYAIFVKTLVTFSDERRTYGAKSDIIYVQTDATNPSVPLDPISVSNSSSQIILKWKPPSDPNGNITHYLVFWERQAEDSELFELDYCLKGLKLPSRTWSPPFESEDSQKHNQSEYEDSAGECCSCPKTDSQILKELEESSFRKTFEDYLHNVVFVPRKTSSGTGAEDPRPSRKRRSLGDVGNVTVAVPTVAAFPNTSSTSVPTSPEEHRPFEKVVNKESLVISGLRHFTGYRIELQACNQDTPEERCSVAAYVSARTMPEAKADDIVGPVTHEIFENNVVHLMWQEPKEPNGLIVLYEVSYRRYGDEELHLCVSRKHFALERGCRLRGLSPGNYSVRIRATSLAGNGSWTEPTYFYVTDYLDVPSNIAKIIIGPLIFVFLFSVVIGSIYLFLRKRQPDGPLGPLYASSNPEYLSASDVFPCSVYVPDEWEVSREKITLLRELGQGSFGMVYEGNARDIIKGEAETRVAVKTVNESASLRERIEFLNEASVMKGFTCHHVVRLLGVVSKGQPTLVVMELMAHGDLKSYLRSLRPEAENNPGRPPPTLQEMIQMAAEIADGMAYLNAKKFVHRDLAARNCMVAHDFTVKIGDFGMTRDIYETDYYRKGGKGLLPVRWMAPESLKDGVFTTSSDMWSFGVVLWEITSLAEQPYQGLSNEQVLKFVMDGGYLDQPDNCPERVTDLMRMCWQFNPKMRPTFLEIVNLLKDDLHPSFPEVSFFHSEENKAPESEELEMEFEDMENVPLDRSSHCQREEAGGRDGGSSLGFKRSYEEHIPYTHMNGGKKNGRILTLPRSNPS
In short: as §1

| SMILES | IC50 [1] | IC50 [2] | IC50 [3] | IC50 [4] |
| --- | --- | --- | --- | --- |
| COc1cc(N2CCC(N3CCN(CCS(C)(=O)=O)CC3)CC2)ccc1Nc1nccc(-c2c(-c3cccc(C(=O)Nc4c(F)cccc4F)c3)nc3c(F)cccn23)n1 [Example 193, N-(2,6-difluorophenyl)-3-[8-fluoro-3-(2-{[2-(methyloxy)-4-(4-{4-[2-(methylsulfonyl)ethyl]-1-piperazinyl}-1-piperidinyl)phenyl]amino}-4-pyrimidinyl)imidazo[1,2-a]pyridin-2-yl]benzamide] | > 1000 nM | < 250 nM | < 100 nM | 100 to 500 nM |
| COc1cc(N2CCC(N3CCC(CCS(C)(=O)=O)CC3)CC2)ccc1Nc1nccc(-c2c(-c3cccc(C(=O)Nc4c(F)cccc4F)c3)nc3ccccn23)n1 [Example 101, N-(2,6-difluorophenyl)-3-(3-{2-[(2-(methyloxy)-4-{4-[2-(methylsulfonyl)ethyl)-1,4′-bipiperidin-1′-yl]phenyl)amino]-4-pyrimidinyl}imidazo[1,2-a]pyridin-2-yl)benzamide] | 250 to 1000 nM | < 250 nM | < 100 nM | < 100 nM |
| COc1cc(N2CCC(N3CCN(CCF)CC3)CC2)ccc1Nc1nccc(-c2c(-c3cccc(C(=O)Nc4c(F)cccc4F)c3)nc3c(F)cccn23)n1 [Example 188, N-(2,6-difluorophenyl)-3-[8-fluoro-3-(2-{[4-{4-[4-(2-fluoroethyl)-1-piperazinyl]-1-piperidinyl}-2-(methyloxy)phenyl]amino}-4-pyrimidinyl)imidazo[1,2-a]pyridin-2-yl]benzamide] | > 1000 nM | 250 to 1000 nM | < 100 nM | 100 to 500 nM |
| COc1cc(N2CCC(N3CCN4CCOC[C@@H]4C3)CC2)ccc1Nc1nccc(-c2c(-c3ccc(OC)c(C(=O)Nc4c(F)cccc4F)c3)nc3ccccn23)n1 [Example 88, N-(2,6-difluorophenyl)-5-[3-(2-{[4-{4-[(9aS)-hexahydropyrazino[2,1-c][1,4]oxazin-8(1H)-yl]-1-piperidinyl}-2-(methyloxy)phenyl]amino}-4-pyrimidinyl)imidazo[1,2-a]pyridin-2-yl]-2-(methyloxy)benzamide] | > 1000 nM | < 250 nM | < 100 nM | < 100 nM |
| COc1cc(N2CCC(N3CCN(CCF)CC3)CC2)ccc1Nc1nccc(-c2c(-c3cccc(C(=O)Nc4c(F)cccc4F)c3)nc3cc(F)ccn23)n1 [Example 194, N-(2,6-difluorophenyl)-3-[7-fluoro-3-(2-{[4-{4-[4-(2-fluoroethyl)-1-piperazinyl]-1-piperidinyl}-2-(methyloxy)phenyl]amino]-4-pyrimidinyl)imidazo[1,2-a]pyridin-2-yl]benzamide] | 250 to 1000 nM | 250 to 1000 nM | < 100 nM | 100 to 500 nM |
| COc1cc(N2CCC(N3CCCN(C)CC3)CC2)ccc1Nc1nccc(-c2c(-c3cccc(C(=O)Nc4c(F)cccc4F)c3)nc3ccccn23)n1 [Example 48, N-(2,6-difluorophenyl)-3-[3-(2-{[4-[4-(4-methylhexahydro-1H-1,4-diazepin-1-yl)-1-piperidinyl}-2-(methyloxy)phenyl]amino}-4-pyrimidinyl)imidazo[1,2-a]pyridin-2-yl]benzamide] | 250 to 1000 nM | 250 to 1000 nM | < 100 nM | 100 to 500 nM |
| COc1cc(N2CCC(N3CCN(CCF)C(=O)C3)CC2)ccc1Nc1nccc(-c2c(-c3cccc(C(=O)Nc4c(F)cccc4F)c3)nc3ccccn23)n1 [Example 121, N-(2,6-difluorophenyl)-3-[3-(2-{[4-{4-[4-(2-fluoroethyl)-3-oxo-1-piperazinyl]-1-piperidinyl}-2-(methyloxy)phenyl]amino]-4-pyrimidinyl)imidazo[1,2-a]pyridin-2-yl]benzamide] | 250 to 1000 nM | < 250 nM | < 100 nM | < 100 nM |
| COc1cc(N2CCC(N3CCCCC3)CC2)c(OC)cc1Nc1nccc(-c2c(-c3cccc(C(=O)Nc4c(F)cccc4F)c3)nc3ccccn23)n1 [Example 110, 3-[3-(2-{[4-(1,4′-bipiperidin-1′-yl)-2,5-bis(methyloxy)phenyl]amino}-4-pyrimidinyl)imidazo[1,2-a]pyridin-2-yl]-N-(2,6-difluorophenyl)benzamide] | 250 to 1000 nM | < 250 nM | < 100 nM | < 100 nM |

Further lines, results first:

| IC50 [1] | IC50 [2] | IC50 [3] | IC50 [4] | SMILES |
| --- | --- | --- | --- | --- |
| < 250 nM | < 250 nM | < 100 nM | < 100 nM | CCOc1ccc(-c2nc3ccccn3c2-c2ccnc(Nc3cc(C)c(N4CCCN(CCS(C)(=O)=O)CC4)cc3OC)n2)cc1C(=O)Nc1c(F)cccc1F [Example 203, N-(2,6-difluorophenyl)-2-(ethyloxy)-5-(3-{2-[(5-methyl-2-(methyloxy)-4-{4-[2-(methylsulfonyl)ethyl)hexahydro-1H-1,4-diazepin-1-yl]phenyl)amino]-4-pyrimidinyl}imidazo[1,2-a]pyridin-2-yl)benzamide] |
| 250 to 1000 nM | < 250 nM | < 100 nM | < 100 nM | CCOc1ccc(-c2nc3ccccn3c2-c2ccnc(Nc3ccc(N4CCC(N5CCC(CCS(C)(=O)=O)CC5)CC4)cc3OC)n2)cc1C(=O)Nc1c(F)cccc1F [Example 103, N-(2,6-difluorophenyl)-2-(ethyloxy)-5-(3-{2-[(2-(methyloxy)-4-{4-[2-(methylsulfonyl)ethyl]-1,4′-bipiperidin-1′-yl}phenyl)amino]-4-pyrimidinyl}imidazo[1,2-a]pyridin-2-yl)benzamide] |
| 250 to 1000 nM | < 250 nM | < 100 nM | < 100 nM | COc1cc(N2CCN(S(C)(=O)=O)CC2)ccc1Nc1nccc(-c2c(-c3cccc(C(=O)Nc4c(F)cccc4F)c3)nc3ccccn23)n1 [Example 234, N-(2,6-difluorophenyl)-3-{3-[2-({2-(methyloxy)-4-[4-(methylsulfonyl)-1-piperazinyl]phenyl}amino)-4-pyrimidinyl}imidazo[1,2-a]pyridin-2-yl]benzamide] |
| 250 to 1000 nM | < 250 nM | < 100 nM | < 100 nM | CCCN1CCN(c2ccc(Nc3nccc(-c4c(-c5ccc(OCC)c(C(=O)Nc6c(F)cccc6F)c5)nc5ccccn45)n3)c(OC)c2)CC1 [Example 178, N-(2,6-difluorophenyl)-2-(ethyloxy)-5-[3-(2-{[2-(methyloxy)-4-(4-propyl-1-piperazinyl)phenyl]amino}-4-pyrimidinyl)imidazo[1,2-a]pyridin-2-yl]benzamide] |
| 250 to 1000 nM | < 250 nM | < 100 nM | < 100 nM | COCCN1CCN(c2cc(OC)c(Nc3nccc(-c4c(-c5ccc(OC)c(C(=O)Nc6c(F)cccc6F)c5)nc5ccccn45)n3)cc2C)CC1 [Example 242, N-(2,6-difluorophenyl)-5-(3-{2-[(5-methyl-2-(methyloxy)-4-{4-[2-(methyloxy)ethyl]-1-piperazinyl}phenyl)amino]-4-pyrimidinyl}imidazo[1,2-a]pyridin-2-yl)-2-(methyloxy)benzamide] |
| 250 to 1000 nM | 250 to 1000 nM | < 100 nM | < 100 nM | CCOc1cc(N2CCN(C(C)C)CC2)ccc1Nc1nccc(-c2c(-c3cccc(C(=O)Nc4c(F)cccc4F)c3)nc3ccccn23)n1 [Example 171, N-(2,6-difluorophenyl)-3-{3-[2-({2-(ethyloxy)-4-[4-(1-methylethyl)-1-piperazinyl]phenyl}amino)-4-pyrimidinyl]imidazo[1,2-a]pyridin-2-yl}benzamide] |
| 250 to 1000 nM | < 250 nM | < 100 nM | < 100 nM | CCCN1CCC(c2ccc(Nc3nccc(-c4c(-c5cccc(C(=O)Nc6c(F)cccc6F)c5)nc5ccccn45)n3)c(OC)c2)CC1 [Example 138, N-(2,6-difluorophenyl)-3-[3-(2-{[2-(methyloxy)-4-(1-propyl-4-piperidinyl)phenyl]amino}-4-pyrimidinyl)imidazo[1,2-a]pyridin-2-yl]benzamide] |
| < 250 nM | < 250 nM | < 100 nM | < 100 nM | COc1cc(N2CCN(CCS(C)(=O)=O)CC2)c(C)cc1Nc1nccc(-c2c(-c3ccc(OC)c(C(=O)Nc4c(F)cccc4F)c3)nc3ccccn23)n1 [Example 149, N-(2,6-difluorophenyl)-5-(3-{2-[(5-methyl-2-(methyloxy)-4-{4-[2-(methylsulfonyl)ethyl]-1-piperazinyl}phenyl)amino]-4-pyrimidinyl}imidazo[1,2-a]pyridin-2-yl)-2-(methyloxy)benzamide] |
| < 250 nM | < 250 nM | < 100 nM | < 100 nM | CCOc1ccc(-c2nc3ccccn3c2-c2ccnc(Nc3cc(C)c(N4CCN(CCS(C)(=O)=O)CC4)cc3OC)n2)cc1C(=O)Nc1c(F)cccc1F [Example 150, N-(2,6-difluorophenyl)-2-(ethyloxy)-5-(3-{2-[(5-methyl-2-(methyloxy)-4-{4-[2-(methylsulfonyl)ethyl]-1-piperazinyl}phenyl)amino]-4-pyrimidinyl}imidazo[1,2-a]pyridin-2-yl)benzamide] |
